The values below come from patent US6750224B1, “Antibacterial optically pure benzoquinolizine carboxylic acids, processes, compositions and methods of treatment” (priority 1999, dated 2004).

Data set [1] has as its system Acinetobacter 3109. In words: Effect of pH on potency of fluoroquinolones (MIC at pH 5.5 and 7.0). It counts as cell-based. As to conditions: MIC pH 7 vs pH 5.5. An excerpt: (§1) The test method was in accordance with the standard NCCLS protocol employing test media adjusted at pH 5.5 and 7.0.
Data set [2] relates to E. coli 2015. Described as above. It counts as cell-based. As to conditions: MIC pH 7 vs pH 5.5.
Excerpt: as §1

Data set [3] relates to E. coli 25922. The data set is described as above. As to conditions: MIC pH 7 vs pH 5.5. It counts as cell-based.
Excerpt: as §1

Data set [4] relates to E. faecalis. The description is as above. Type of data set: cell-based. The conditions noted are these: MIC pH 7 vs pH 5.5.
Excerpt: as §1

For data set [5], the system named is Klebsiella 24037. Described as above. Type of data set: cell-based. The conditions noted are these: MIC pH 7 vs pH 5.5.
Excerpt: as §1

For data set [6], the system named is P. mirabilis 37. The data set is described as above. The conditions noted are these: MIC pH 7 vs pH 5.5. Type of data set: cell-based.
Excerpt: as §1

The subject of data set [7] is P. rettgeri N 1764. Described as above. It counts as cell-based. The conditions noted are these: MIC pH 7 vs pH 5.5.
Excerpt: as §1

Data set [8] deals with P. vulgaris 66. The data set is described as above. Type of data set: cell-based. The conditions noted are these: MIC pH 7 vs pH 5.5.
Excerpt: as §1

The test system of data set [9] is Ps. Aeruginosa. The description is as above. It counts as cell-based. The conditions noted are these: MIC pH 7 vs pH 5.5.
Excerpt: as §1

The test system of data set [10] is S. aureus 1199-B. The description is as above. It counts as cell-based. The conditions noted are these: MIC pH 7 vs pH 5.5.
Excerpt: as §1

Data set [11] concerns S. aureus 25923. Described as above. The conditions noted are these: MIC pH 7 vs pH 5.5. It counts as cell-based.
Excerpt: as §1

The subject of data set [12] is Serratia marcescens 2702. The data set is described as above. Type of data set: cell-based. The conditions noted are these: MIC pH 7 vs pH 5.5.
Excerpt: as §1

Data set [13] relates to MRSA STA-4. In words: In-vitro antimicrobial activity test (MIC, NCCLS). Type of data set: cell-based, Staphylococcus aureus. An excerpt: (§2) The test method was in accordance with the standard NCCLS protocol.
For data set [14], the system named is Mupirocin-resistant Staph STA-34. In words: In-vitro antimicrobial activity test (MIC, NCCLS). Type of data set: cell-based, Staphylococcus aureus.
Excerpt: as §2

Data set [15] relates to MRSE STE-22. In words: In-vitro antimicrobial activity test (MIC, NCCLS). It counts as cell-based, Staphylococcus epidermidis.
Excerpt: as §2

Data set [16] relates to Corynebacterium jeikeium. Nature of the data set: In-vitro antimicrobial activity test (MIC, NCCLS). It counts as cell-based.
Excerpt: as §2

Data set [17] relates to Enterococcus faecalis ATCC 29212. In words: In-vitro antimicrobial activity test (MIC, NCCLS). Type of data set: cell-based.
Excerpt: as §2

The subject of data set [18] is Enterococcus faecium. In words: In-vitro antimicrobial activity test (MIC, NCCLS). Type of data set: cell-based.
Excerpt: as §2

The test system of data set [19] is Propioni bacterium acnes. Nature of the data set: In-vitro antimicrobial activity test (MIC, NCCLS). Type of data set: cell-based.
Excerpt: as §2

Data set [20] deals with Staphylococcus aureus ATCC 25923. In words: In-vitro antimicrobial activity test (MIC, NCCLS). It counts as cell-based.
Excerpt: as §2

The test system of data set [21] is Streptococcus pneumoniae ATCC 6303. In words: In-vitro antimicrobial activity test (MIC, NCCLS). It counts as cell-based.
Excerpt: as §2

In data set [22] the test system is Streptococcus pyogenes. Nature of the data set: In-vitro antimicrobial activity test (MIC, NCCLS). It counts as cell-based.
Excerpt: as §2

Data set [23] concerns Viridans group Streptococci. Nature of the data set: In-vitro antimicrobial activity test (MIC, NCCLS). It counts as cell-based.
Excerpt: as §2

Data set [24] is described as follows: Chemical stability under heating (HPLC). It counts as physicochemical. The method, then:
The anhydride and hydrates were each introduced into a glass vial and maintained at 70° C. Thus the thermal decomposition with elapsed time was analysed by HPLC and the results thus obtained are described in Table 8

The subject of data set [25] is Bacteroides fragilis. Nature of the data set: In-vitro antimicrobial activity test (MIC, NCCLS). Type of data set: cell-based.
Excerpt: as §2

Data set [26] relates to Chryseobacterium meningosepticum. Nature of the data set: In-vitro antimicrobial activity test (MIC, NCCLS). Type of data set: cell-based.
Excerpt: as §2

In data set [27] the test system is Escherichia coli ATCC 25922. Nature of the data set: In-vitro antimicrobial activity test (MIC, NCCLS). Type of data set: cell-based.
Excerpt: as §2

Data set [28] concerns Haemophilus influenzae. Nature of the data set: In-vitro antimicrobial activity test (MIC, NCCLS). It counts as cell-based.
Excerpt: as §2

The test system of data set [29] is Mycobacterium avium. Nature of the data set: In-vitro antimicrobial activity test (MIC, NCCLS). Type of data set: cell-based.
Excerpt: as §2

In data set [30] the test system is Mycobacterium intracellulare. Nature of the data set: In-vitro antimicrobial activity test (MIC, NCCLS). It counts as cell-based.
Excerpt: as §2

Data set [31] has as its system Mycobacterium tuberculosis ATCC 27294. Nature of the data set: In-vitro antimicrobial activity test (MIC, NCCLS). It counts as cell-based.
Excerpt: as §2

Data set [32] deals with Pseudomonas aeruginosa. In words: In-vitro antimicrobial activity test (MIC, NCCLS). It counts as cell-based.
Excerpt: as §2

Data set [33] has as its system Serratia marcescens. Nature of the data set: In-vitro antimicrobial activity test (MIC, NCCLS). Type of data set: cell-based.
Excerpt: as §2

Data set [34] has as its system S.aureus strain bearing Nor A efflux pump. Type of data set: cell-based. As to conditions: Nor A efflux pump strain vs strain devoid of efflux pump. The method, then: Using this set of MIC values, % loss in potency due to efflux was calculated for each of the fluoroquinolone in Table 5
A short description of data set [35]: Equilibrium moisture content determination at several relative humidities. The conditions noted are these: Karl Fischer. Type of data set: physicochemical. An excerpt: Silica (anhydrous) and three saturated solutions of electrolytes prepared by dissolving the respective salts in water were each introduced into different desiccators to control the inner relative humidity to a specific value as represented in the following Table 7. Then, the equilibrium moisture contents of S-(−)-9-fluoro-6,7-dihydro-8-(4-hydroxypiperidin-1-yl)-5-methyl-1-oxo-1H,5H-benzo[i,j]quinolizine-2-carboxylic acid anhydrate and S-(−)-9-fluoro-6,7-dihydro-8-(4-hydroxypiperidin-1-yl)-5-methyl-1-oxo-1H,5H-benzo[i,j]quinolizine-2-carboxylic acid 0.2 hydrate prepared in Examples 1 and 2 respectively were determined at several relative humidities.
Specifically, 1 g of the sample was spread on a pre-weighed petridish and the total weight was accurately measured, then both the samples were placed in each desiccator of Table 8 The dessicators were allowed to stand at normal temperature for at least 3 days and the weight was measured agingly over this period. The weight changes were tabulated. At the end of 3 days all samples were taken to be weighed. The moisture content of each sample was determined by Karl Fischer analysis. Equilibrium moisture content at each relative humidity is represented in FIG. 1 (anhydrate) and FIG. 2 (0.2 hydrate).

Values after ≈ are worked out from the molar mass of the structure shown. Where two headings read alike, the source gives them in different places.

For `O=C(O)c1cn(C2CC2)c2cc(N3CCNCC3)c(F)cc2c1=O` [Ciprofloxacin], the “% change in potency at pH 5.5, loss (−)/gain (+)” value (shortened to “% change … loss (−)/gain (+)”) in data set [1] is reported as −97%; in data set [2] it was −94%; in [3], −97.5%; in [4], −87.5%; in data set [5], −97%; in data set [6], −96%. Besides, the “% change … loss (−)/gain (+)” value in [7] is recorded as −94%; in data set [8], −96%; in data set [9], −87%; in data set [10], −75%; in data set [11], −75%; in data set [12], −99%.

Take `C/C(=C\C(=O)OCCCCCCCCC(=O)O)C[C@@H]1OC[C@H](C[C@@H]2O[C@H]2[C@@H](C)[C@H](C)O)[C@@H](O)[C@H]1O` [Mupirocin]: the MIC in data set [13] was 0.4 µg/mL (≈ 0.799 µM); in data set [14], > 400 µg/mL; in [15] it was 0.2 µg/mL (≈ 0.399 µM); in data set [16], > 12.5 µg/mL; in [17], > 12.5 µg/mL; in data set [18] it was > 0.8 µg/mL. In addition, the MIC in [19] was > 1000 µg/mL; in data set [20], 0.4 µg/mL (≈ 0.799 µM); in data set [21], 0.2 µg/mL (≈ 0.399 µM); in data set [22], 0.025 µg/mL (≈ 0.0499 µM); in [23], 0.2 µg/mL (≈ 0.399 µM).

As for `C[C@H]1CCc2c(N3CCC(O)CC3)c(F)cc3c(=O)c(C(=O)O)cn1c23.C[C@H]1CCc2c(N3CCC(O)CC3)c(F)cc3c(=O)c(C(=O)O)cn1c23.O` [Example 3, S-(−)-9-fluoro-6,7-dihydro-8-(4-hydroxypiperidin-1-yl)-5-methyl-1-oxo-1H,5H-benzo[i,j]quinolizine-2-carboxylic acid 0.5 hydrate], in data set [24], the “Thermal stability with elapsed time at 70° C.” value (“Thermal stability” for short) is 98.1% and the “chemical stability at 70° C., in words” value was “decompose with time”.

For the compound `C[C@H]1COc2c(N3CCN(C)CC3)c(F)cc3c(=O)c(C(=O)O)cn1c23` [Levofloxacin], the MIC in [13] was > 12.5 µg/mL; in data set [14] it was 12.5 µg/mL (≈ 34.6 µM); in data set [15] it was > 12.5 µg/mL; in data set [25] it was 6.25 µg/mL (≈ 17.3 µM); in data set [26] it was 6.25 µg/mL (≈ 17.3 µM); in [16], 0.4 µg/mL (≈ 1.11 µM). Also, the MIC in data set [17] stood at 0.8 µg/mL (≈ 2.21 µM); in [18], 1.56 µg/mL (≈ 4.32 µM); in [27], 0.05 µg/mL (≈ 0.138 µM); in [28] it was 0.03 µg/mL (≈ 0.083 µM); in [29], 12.5 µg/mL (≈ 34.6 µM); in [30] it was 0.8 µg/mL (≈ 2.21 µM). The MIC amounted to 0.4 µg/mL (≈ 1.11 µM) in data set [31]; 1 µg/mL (≈ 2.77 µM) in [19]; 3.12 µg/mL (≈ 8.63 µM) in data set [32]; 0.1 µg/mL (≈ 0.277 µM) in data set [33]; 0.2 µg/mL (≈ 0.553 µM) in data set [20]; 0.8 µg/mL (≈ 2.21 µM) in data set [21]. Moreover, the MIC stood at 0.4 µg/mL (≈ 1.11 µM) in data set [22] and 1.56 µg/mL (≈ 4.32 µM) in [23]. Besides, the “% change … loss (−)/gain (+)” value in data set [1] is given as −94%; in data set [2], −87.5%; in data set [3] it was −96%; in data set [4], −75%; in data set [5], −94%; in data set [6], −94%. In addition, the “% change … loss (−)/gain (+)” value was −94% in [7]; −94% in data set [8]; −50% in [9]; −75% in data set [10]; −75% in data set [11]; −98% in [12].

Take `NC1CCN(c2c(F)cc3c(=O)c(C(=O)O)cn(C4CC4)c3c2Cl)C1` (centres unmarked) [Clinafloxacin]: the “% loss in potency for S. aureus bearing Efflux pump” value (“% loss in potency” for short) in [34] is 87.5%.

Consider `C[C@H]1CCc2c(N3CCC(O)CC3)c(F)cc3c(=O)c(C(=O)O)cn1c23` [Example 1, S-(−)-9-fluoro-6,7-dihydro-8-(4-hydroxypiperidin-1-yl)-5-methyl-1-oxo-1H,5H-benzo[i,j]quinolizine-2-carboxylic acid anhydrate], for which the results for the equilibrium moisture content result in data set [35] (relative humidity 20% to 58%) and in data set [35] (relative humidity 75% to 95%) were “around 0.1%” and “around 1%”, respectively. Besides, the “Thermal stability” value is listed as 98.7% in data set [24] (1 week, HPLC); 98.6% in data set [24] (2 week, HPLC); 98.9% in data set [24] (Initial, HPLC).

For the compound `COc1c(N2CCNC(C)C2)c(F)cc2c(=O)c(C(=O)O)cn(C3CC3)c12` (centres unmarked) [Gatifloxacin], in [34], the “% loss in potency” value was 75%.

With `C[C@H]1CCc2c(N3CCC(O)CC3)c(F)cc3c(=O)c(C(=O)O)cn1c23.O` [Example 4, S-(−)-9-fluoro-6,7-dihydro-8-(4-hydroxypiperidin-1-yl)-5-methyl-1-oxo-1H,5H-benzo[i,j]quinolizine-2-carboxylic acid 0.75 hydrate], in [24], the “Thermal stability” value is listed as 98.3% and the “chemical stability at 70° C., in words” value is “decompose with time”.

Regarding `CCn1cc(C(=O)O)c(=O)c2cc(F)c(N3CCNCC3)cc21` [Norfloxacin], the “% loss in potency” value in [34] was 97%.

For `CO/N=C1\CN(c2nc3c(cc2F)c(=O)c(C(=O)O)cn3C2CC2)CC1CN` (centres unmarked) [Gemifloxacin], the “% loss in potency” value in [34] stood at 75%.

For `C[C@H]1CCc2c(N3CCC(O)CC3)c(F)cc3c(=O)c(C(=O)O)cn1c23.O` [Example 2, S-(−)-9-fluoro-6,7-dihydro-8-(4-hydroxypiperidin-1-yl)-5-methyl-1-oxo-1H,5H-benzo[i,j]quinolizine-2-carboxylic acid 0.2 hydrate], in data set [35] (relative humidity 20% to 95%), the equilibrium moisture content entry is “around 1%”. Also, in data set [24], the “Thermal stability” value turned out to be 98.7% and the “chemical stability at 70° C., in words” value was “same degree of chemical stability as the anhydrate”.
